In patent US20130072468A1, “SUBSTITUTED PIPERAZINES AS CB1 ANTAGONISTS” (priority 2011, published 2013):

Biological target: T1, cannabinoid CB1 (Homo sapiens, UniProt P21554)
T1 construct: purchased
Assay: Competition binding assay for cannabinoid CB1 affinity (3H-CP55,940 displacement, membranes)
Settings: competition binding vs 0.5 nM 3H-CP55,940; Ki by Cheng-Prusoff; read-out: Ki values in the assay described above
Method: Method for Evaluating Cannabinoid CB1 and CB affinity
Competition binding assays for cannabinoid CB1 and CB2 affinity were performed by incubating commercially purchased membranes prepared from cells expressing each receptor subtype (8 μg pro) with 0.5 nM ^3H-CP55,940, a non-selective cannabinoid agonist, along with concentrations of drug ranging from 0.0001-3 μM in Buffer A (5 mM MgCl2, 2.5 mM EDTA and […] BSA). Non-specific binding was defined in the presence of 10 μM CP55,940. For saturation studies, concentrations of ^3H-CP55,940 ranging from 0.1-5 nM were incubated with membranes in the presence and absence of 10 μM CP55,940. Assays were terminated after incubation for 1½ hours by rapid filtration onto 0.3 polyethylenamine treated GF/C filterplates using a BRANDEL cell harvester. The plates were dried and MICROSCINT scintillation cocktail was added, after which the bound radioactivity was quantified using a TOPCOUNT scintillation counter.
The dissociation constant (Kd) of ^3H-CP55,940 at the CB1 and CB2 receptor were determined by plotting specific binding at each concentration of radioligand, and analysis by non-linear regression. For competition studies, the concentration of each drug that inhibited 50 percent of ^3H-CP55,940 binding (IC50) was determined by non-linear regression analysis of the radioligand displacement curves. Affinity constants (Ki) were calculated using the equation derived by Cheng and Prusoff (1973), defined as: IC50/1+[conc. ligand/Kd].

T1 sequence (P21554 whole entry): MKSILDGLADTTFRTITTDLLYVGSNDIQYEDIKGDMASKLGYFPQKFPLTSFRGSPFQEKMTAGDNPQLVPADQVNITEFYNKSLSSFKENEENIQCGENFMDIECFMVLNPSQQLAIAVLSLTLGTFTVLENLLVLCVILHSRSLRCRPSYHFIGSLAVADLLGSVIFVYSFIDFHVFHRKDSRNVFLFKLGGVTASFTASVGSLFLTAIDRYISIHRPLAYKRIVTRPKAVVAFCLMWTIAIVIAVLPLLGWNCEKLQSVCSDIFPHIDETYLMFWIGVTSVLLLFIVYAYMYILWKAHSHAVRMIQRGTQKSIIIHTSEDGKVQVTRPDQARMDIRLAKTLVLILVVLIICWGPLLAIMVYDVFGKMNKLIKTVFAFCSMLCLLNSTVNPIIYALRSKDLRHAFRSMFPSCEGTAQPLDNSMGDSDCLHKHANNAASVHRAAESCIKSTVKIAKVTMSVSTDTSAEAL

Row | Structure (SMILES) | Ki
1 | C[C@@](O)(CN1CCN(c2ccc(Cl)cc2Cl)[C@H](c2ccc(Cl)cc2)C1)c1ccc(N)nc1 [Example 1037] | 0.2 to 100 nM
2 | N#Cc1ccc(N2CCNC[C@H]2c2ccc(Cl)cc2)nc1 [Example 826b] | ≥ 900 nM
3 | COc1ccc(N2CCNC[C@H]2c2ccc(F)cc2)c(C#N)c1 [Example 826e] | ≥ 900 nM
4 | CC(O)(CN1CCN(c2ccc(Cl)cc2Cl)[C@H](c2ccc(Cl)cc2)C1)C(=O)O (some centres unmarked) [Example 877b] | ≥ 900 nM
5 | CC(C)(C)CCN1CCC(C(C)(O)CN2CCN(c3ccc(Cl)cc3Cl)[C@H](c3ccc(Cl)cc3)C2)CC1 (some centres unmarked) [Example 1089] | ~873 nM
6 | COc1ccc(N2CCN(Cc3ccccc3)C[C@H]2c2ccc(Cl)cc2)c(Cl)c1 [Example 807] | ≥ 900 nM
7 | COc1cccc([C@@H]2CNCCN2c2ccc(C#N)cc2Cl)c1 [Example 813b] | ≥ 900 nM
8 | C[C@@](O)(CN1CCN(c2ccc(Cl)cc2Cl)[C@H](c2ccc(Cl)cc2)C1)c1ccc(Cl)cc1 [Example 930] | 0.2 to 100 nM
9 | O=C1CN(Cc2ccccc2)C[C@@H](c2ccc(Cl)cc2)N1c1ccc(O)cc1 [Example 831] | ≥ 900 nM
10 | COC(=O)c1ccc(N2CCN(Cc3ccccc3)C[C@H]2c2ccc(Cl)cc2)cc1 [Example 817] | ≥ 900 nM
11 | COc1ccc(N2CCNC[C@H]2c2ccc(Cl)cc2)c(F)c1 [Example 822] | ≥ 900 nM
12 | CC(C)(C)OC(=O)N[C@@H](C(=O)N1CCN(c2ccc(Cl)cc2Cl)[C@H](c2ccc(Cl)cc2)C1)c1ccc(Cl)cc1 [Example 1167a] | ≥ 900 nM
13 | OCc1ccc(N2CCN(Cc3ccccc3)C[C@H]2c2ccc(Cl)cc2)cc1 [Example 824] | ≥ 900 nM
14 | C[C@@](O)(CN1CCN(c2ccc(C#N)cc2Cl)[C@H](c2ccc(Cl)cc2)C1)c1cc(F)cc(F)c1 [Example 949] | 0.2 to 100 nM
15 | CC(O)(CN1CCN(c2ccc(Cl)cc2Cl)[C@H](c2ccc(Cl)cc2)C1)C1CCN(S(=O)(=O)C2CC2)CC1 (some centres unmarked) [Example 1091] | 0.2 to 100 nM
16 | O=C1CN(Cc2ccccc2)C[C@@H](c2ccc(Cl)cc2)N1c1ccc(O)cc1Cl [Example 830] | ≥ 900 nM
17 | N#Cc1cccnc1N1CCNC[C@H]1c1ccc(Cl)cc1 [Example 826d] | ≥ 900 nM
